Experimental data reported in patent publication US20240399032A1, “HYDROGEL FOR PROMOTING GROWTH OF MESENCHYMAL STEM CELLS, AND PREPARATION METHOD AND APPLICATION METHOD THEREOF” (The Fifth People's Hospital of Hainan Province, priority 2023, published 2024).

Key:
skin scratch model rat = test: Treatment of wound of skin scratch model DM rat; assay type: in vivo; settings: applied daily on wound of left hindfoot; for time until wound healed: mecobalamin H1 group (wound without administration healed too), epalrestat M1 group (without administration healed on eighteenth day)
Method: 30 specific pathogen free (SPF) Sprague Dawley (SD) male rats aged 6-8 weeks old (weight 190 g or so) are used to construct as the DM rat model. Specifically, the STZ solution is prepared and used, and the prepared STZ solution is used within 10 minutes. The STZ solution is injected into left lower abdomens of the rats with a single dose of 55 milligrams per kilogram (mg/kg). After a week of the intraperitoneal injection of the STZ solution, the rats are in abrosia but can have water for 12 hours (h), thereafter blood glucose of the rats is detected, and the rats with blood glucose value above 12.6 […] are selected as the DM rat model. The 30 SPF SD male rats are all constructed as the DM rat model, 12 rats died before diabetic foot administration, and 2 rats died during the administration but not appearing effectiveness. Six DM model rats are selected for normal feeding for four weeks. After anesthesia, round skin wounds with each diameter of 5 mm are created on dorsal sides of hindfoots of the DM model rats to generate foot gangrene, as shown in FIG. 2. And then, the DM model rats continue to be fed regularly and the skin wounds of the DM model rats are observed every day. Therapeutic drug of mecobalamin (H1 group) is applied daily on the wound disposed on the left hindfoot of the skin scratch model rat, and then the wound of the model rat is observed. […] Therapeutic drug of epalrestat (M1 group) is applied daily on the wound disposed on the left hindfoot of the skin scratch model rat, and then the wound of the model rat is observed. After 13 days of continuous administration, the wound healed, and at the same time, the wound of the skin scratch model rat without administration healed on the eighteenth day. […] The hydrogels (T1 group, T2 group, T3 group, T4 group) are applied daily on the wounds disposed on the left hindfoots of four skin scratch model rats, and then the wounds of the 4 model rats are observed. […]

[1] = tested on: Staphylococcus aureus model rat; test: Treatment of wound (foot gangrene) of Staphylococcus aureus model DM rat; assay type: in vivo; settings: applied daily on wound of left hindfoot
Method: 30 specific pathogen free (SPF) Sprague Dawley (SD) male rats aged 6-8 weeks old (weight 190 g or so) are used to construct as the DM rat model. Specifically, the STZ solution is prepared and used, and the prepared STZ solution is used within 10 minutes. The STZ solution is injected into left lower abdomens of the rats with a single dose of 55 milligrams per kilogram (mg/kg). After a week of the intraperitoneal injection of the STZ solution, the rats are in abrosia but can have water for 12 hours (h), thereafter blood glucose of the rats is detected, and the rats with blood glucose value above 12.6 […] are selected as the DM rat model. The 30 SPF SD male rats are all constructed as the DM rat model, 12 rats died before diabetic foot administration, and 2 rats died during the administration but not appearing effectiveness. Six DM model rats are selected. At the third week, dorsal sides of hindfoots of the DM model rats are subcutaneously injected 10 μL of suspension containing more than […] Staphylococcus aureus, thereby obtaining a DM animal model with foot infection (also referred to as extremity infection). It can be seen from FIG. 1, on the sixth day, spontaneous foot gangrene occurs, and on the seventh day and eighth day, the foot gangrene is gradually obvious. […]

In the case of CC(/C=C1\SC(=S)N(CC(=O)O)C1=O)=C\c1ccccc1 [epalrestat, Epalrestat], the “time until wound healed” value (skin scratch model rat) is reported as 13 days.

For C/C1=C2/[N-][C@H]([C@H](CC(N)=O)[C@@]2(C)CCC(=O)NC[C@@H](C)OP(=O)([O-])O[C@H]2[C@@H](O)[C@@H](n3cnc4cc(C)c(C)cc43)O[C@@H]2CO)[C@]2(C)N=C(/C(C)=C3N=C(/C=C4N=C1[C@@H](CCC(N)=O)C\4(C)C)[C@@H](CCC(N)=O)[C@]\3(C)CC(N)=O)[C@@H](CCC(N)=O)[C@]2(C)CC(N)=O.[CH3-].[Co+3] [mecobalamin, Mecobalamin], the “time of administration until wound / foot gangrene healed” value ([1]; mecobalamin H4 group (untreated wound healed as well), hydrogel T10 group (control healed after 7 days)) was 5 days, the “healing of treated wound compared with untreated wound / control group” value ([1]; mecobalamin H4 group, hydrogel T10 group, same area of foot gangrene) was “no significant difference” and the “effect on wound healing” value (skin scratch model rat; H1, M1, T1-T4 groups) was “no significant promoting effect”. The “time until wound healed” value (skin scratch model rat) was 11 days.
